What was measured:
[1] = biological target: Serine/threonine-protein kinase B-raf (Homo sapiens) (UniProt P15056); assay: Inhibition of BRAF (unknown origin) assessed as residual activity at 100 nM by KINOMEscan analysis relative to control
[2] = biological target: T1, Ephrin type-A receptor 1 (Homo sapiens) (UniProt P21709); assay: Inhibition of EPHA1 (unknown origin) assessed as residual activity at 100 nM by KINOMEscan analysis relative to control
T1 sequence (whole entry): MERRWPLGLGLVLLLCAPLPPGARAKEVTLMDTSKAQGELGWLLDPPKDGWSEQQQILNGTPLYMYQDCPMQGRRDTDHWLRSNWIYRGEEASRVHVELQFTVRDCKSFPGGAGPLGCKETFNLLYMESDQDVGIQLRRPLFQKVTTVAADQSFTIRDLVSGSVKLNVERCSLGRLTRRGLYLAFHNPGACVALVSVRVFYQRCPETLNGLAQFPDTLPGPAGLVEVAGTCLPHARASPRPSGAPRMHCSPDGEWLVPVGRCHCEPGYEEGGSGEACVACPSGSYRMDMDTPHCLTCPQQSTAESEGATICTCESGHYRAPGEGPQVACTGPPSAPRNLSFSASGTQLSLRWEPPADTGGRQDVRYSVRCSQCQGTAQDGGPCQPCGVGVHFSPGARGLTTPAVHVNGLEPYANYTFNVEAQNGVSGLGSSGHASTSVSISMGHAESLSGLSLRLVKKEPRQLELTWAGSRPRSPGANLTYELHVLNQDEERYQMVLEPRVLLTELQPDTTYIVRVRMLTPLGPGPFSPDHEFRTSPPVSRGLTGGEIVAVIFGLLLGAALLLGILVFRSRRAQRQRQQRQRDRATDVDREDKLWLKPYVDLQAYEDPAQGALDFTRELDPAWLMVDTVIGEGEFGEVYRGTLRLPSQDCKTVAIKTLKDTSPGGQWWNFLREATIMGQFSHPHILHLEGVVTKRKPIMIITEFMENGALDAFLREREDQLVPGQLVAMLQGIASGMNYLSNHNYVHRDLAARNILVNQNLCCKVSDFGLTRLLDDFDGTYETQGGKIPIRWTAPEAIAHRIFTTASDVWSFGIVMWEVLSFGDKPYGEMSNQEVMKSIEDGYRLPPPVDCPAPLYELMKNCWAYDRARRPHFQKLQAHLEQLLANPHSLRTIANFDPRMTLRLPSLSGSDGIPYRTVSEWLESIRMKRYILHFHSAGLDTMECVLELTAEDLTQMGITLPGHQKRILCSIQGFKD

[3] = biological target: Vascular endothelial growth factor receptor 1 (Homo sapiens) (UniProt P17948); assay: Inhibition of FLT1 (unknown origin) assessed as residual activity at 100 nM by KINOMEscan analysis relative to control
[4] = test system: eIF-2-alpha kinase GCN2 (Homo sapiens), Q9P2K8 [S808G]; assay: Inhibition of GCN2 S808G mutant […] domain (unknown origin) assessed as residual activity at 100 nM by KINOMEscan analysis relative to control
[5] = test system: Mast/stem cell growth factor receptor Kit (Homo sapiens), P10721 [A829P]; assay: Inhibition of KIT A829P mutant (unknown origin) assessed as residual activity at 100 nM by KINOMEscan analysis relative to control
[6] = biological target: Mitogen-activated protein kinase kinase kinase 1 (Homo sapiens) (UniProt Q13233); assay: Inhibition of MAP3K1 (unknown origin) assessed as residual activity at 100 nM by KINOMEscan analysis relative to control
[7] = biological target: Mitogen-activated protein kinase kinase kinase kinase 4 (Homo sapiens) (UniProt O95819); assay: Inhibition of MAP4K4 (unknown origin) assessed as residual activity at 100 nM by KINOMEscan analysis relative to control
[8] = biological target: Serine/threonine-protein kinase NIM1 (Homo sapiens) (UniProt Q8IY84); assay: Inhibition of NIM1 (unknown origin) assessed as residual activity at 100 nM by KINOMEscan analysis relative to control
[9] = biological target: cAMP-dependent protein kinase catalytic subunit beta (Homo sapiens) (UniProt P22694); assay: Inhibition of PKAC-beta (unknown origin) assessed as residual activity at 100 nM by KINOMEscan analysis relative to control
[10] = biological target: Serine/threonine-protein kinase N2 (Homo sapiens) (UniProt Q16513); assay: Inhibition of PKN2 (unknown origin) assessed as residual activity at 100 nM by KINOMEscan analysis relative to control
[11] = biological target: T2, Protein kinase C iota type (Homo sapiens) (UniProt P41743); assay: Inhibition of PRKCI (unknown origin) assessed as residual activity at 100 nM by KINOMEscan analysis relative to control
T2 sequence (whole entry): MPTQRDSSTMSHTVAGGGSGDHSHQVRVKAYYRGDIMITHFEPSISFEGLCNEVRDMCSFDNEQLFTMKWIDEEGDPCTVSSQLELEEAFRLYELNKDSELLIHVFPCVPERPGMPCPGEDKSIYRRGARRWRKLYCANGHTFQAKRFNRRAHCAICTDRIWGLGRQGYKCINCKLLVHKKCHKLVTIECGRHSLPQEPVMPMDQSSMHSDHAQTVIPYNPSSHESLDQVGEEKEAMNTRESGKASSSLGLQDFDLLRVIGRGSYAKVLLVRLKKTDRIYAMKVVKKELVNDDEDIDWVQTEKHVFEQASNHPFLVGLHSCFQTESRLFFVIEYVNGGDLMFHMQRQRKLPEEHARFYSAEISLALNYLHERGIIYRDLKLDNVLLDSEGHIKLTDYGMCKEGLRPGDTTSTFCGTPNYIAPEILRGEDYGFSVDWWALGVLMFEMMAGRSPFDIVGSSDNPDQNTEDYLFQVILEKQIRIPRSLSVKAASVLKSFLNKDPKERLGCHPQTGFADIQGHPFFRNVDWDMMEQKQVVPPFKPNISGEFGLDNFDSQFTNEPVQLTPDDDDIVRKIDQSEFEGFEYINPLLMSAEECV

[12] = biological target: T3, Uncharacterized serine/threonine-protein kinase SBK3 (Homo sapiens) (UniProt P0C264); assay: Inhibition of SgK110 (unknown origin) assessed as residual activity at 100 nM by KINOMEscan analysis relative to control
T3 sequence (whole entry): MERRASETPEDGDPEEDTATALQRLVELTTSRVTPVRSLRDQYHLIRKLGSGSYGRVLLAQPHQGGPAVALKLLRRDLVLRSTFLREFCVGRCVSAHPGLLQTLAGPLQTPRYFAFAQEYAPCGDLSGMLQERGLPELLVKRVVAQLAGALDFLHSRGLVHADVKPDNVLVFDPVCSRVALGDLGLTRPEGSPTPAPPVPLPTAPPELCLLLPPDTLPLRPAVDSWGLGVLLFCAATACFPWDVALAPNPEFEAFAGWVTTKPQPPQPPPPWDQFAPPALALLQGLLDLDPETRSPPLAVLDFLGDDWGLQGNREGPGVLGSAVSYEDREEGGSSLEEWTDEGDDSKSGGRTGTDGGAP

[13] = biological target: High affinity nerve growth factor receptor (Homo sapiens) (UniProt P04629); assay: Inhibition of TRKA (unknown origin) assessed as residual activity at 100 nM by KINOMEscan analysis relative to control
Chain of High affinity nerve growth factor receptor (Homo sapiens) (P04629 33-796 limits assumed): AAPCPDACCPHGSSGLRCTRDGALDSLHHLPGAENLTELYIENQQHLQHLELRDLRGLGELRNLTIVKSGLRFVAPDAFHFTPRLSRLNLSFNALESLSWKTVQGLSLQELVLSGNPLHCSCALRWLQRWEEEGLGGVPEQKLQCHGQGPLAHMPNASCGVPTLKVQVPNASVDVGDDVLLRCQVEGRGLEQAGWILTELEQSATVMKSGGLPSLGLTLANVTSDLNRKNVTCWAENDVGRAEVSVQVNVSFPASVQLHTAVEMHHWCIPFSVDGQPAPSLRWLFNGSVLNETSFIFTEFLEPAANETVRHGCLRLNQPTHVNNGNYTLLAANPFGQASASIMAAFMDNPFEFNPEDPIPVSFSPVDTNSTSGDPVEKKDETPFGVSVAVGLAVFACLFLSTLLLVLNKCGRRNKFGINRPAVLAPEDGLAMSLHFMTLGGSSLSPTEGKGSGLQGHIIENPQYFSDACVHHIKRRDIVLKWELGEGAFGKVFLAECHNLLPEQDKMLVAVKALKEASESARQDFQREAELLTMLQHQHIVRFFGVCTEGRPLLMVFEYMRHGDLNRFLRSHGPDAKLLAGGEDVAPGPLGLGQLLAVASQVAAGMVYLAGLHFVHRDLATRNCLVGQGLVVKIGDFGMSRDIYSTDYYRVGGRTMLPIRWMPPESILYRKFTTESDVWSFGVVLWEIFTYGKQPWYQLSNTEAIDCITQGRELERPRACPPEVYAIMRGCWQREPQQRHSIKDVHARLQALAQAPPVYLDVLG

Chain of Serine/threonine-protein kinase NIM1 (Homo sapiens) (Q8IY84 whole entry): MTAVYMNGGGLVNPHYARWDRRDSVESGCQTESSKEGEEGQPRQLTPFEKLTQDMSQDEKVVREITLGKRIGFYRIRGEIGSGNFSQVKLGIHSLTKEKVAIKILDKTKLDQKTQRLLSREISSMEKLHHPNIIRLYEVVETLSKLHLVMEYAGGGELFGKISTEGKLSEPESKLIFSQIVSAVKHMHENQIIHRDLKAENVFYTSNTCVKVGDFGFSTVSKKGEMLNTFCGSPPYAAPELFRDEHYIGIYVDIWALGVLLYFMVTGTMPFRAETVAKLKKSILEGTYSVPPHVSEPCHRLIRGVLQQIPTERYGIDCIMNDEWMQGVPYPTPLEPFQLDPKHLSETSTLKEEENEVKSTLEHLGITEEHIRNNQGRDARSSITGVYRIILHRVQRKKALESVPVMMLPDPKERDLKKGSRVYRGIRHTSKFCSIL
Chain of Mitogen-activated protein kinase kinase kinase 1 (Homo sapiens) (Q13233 whole entry): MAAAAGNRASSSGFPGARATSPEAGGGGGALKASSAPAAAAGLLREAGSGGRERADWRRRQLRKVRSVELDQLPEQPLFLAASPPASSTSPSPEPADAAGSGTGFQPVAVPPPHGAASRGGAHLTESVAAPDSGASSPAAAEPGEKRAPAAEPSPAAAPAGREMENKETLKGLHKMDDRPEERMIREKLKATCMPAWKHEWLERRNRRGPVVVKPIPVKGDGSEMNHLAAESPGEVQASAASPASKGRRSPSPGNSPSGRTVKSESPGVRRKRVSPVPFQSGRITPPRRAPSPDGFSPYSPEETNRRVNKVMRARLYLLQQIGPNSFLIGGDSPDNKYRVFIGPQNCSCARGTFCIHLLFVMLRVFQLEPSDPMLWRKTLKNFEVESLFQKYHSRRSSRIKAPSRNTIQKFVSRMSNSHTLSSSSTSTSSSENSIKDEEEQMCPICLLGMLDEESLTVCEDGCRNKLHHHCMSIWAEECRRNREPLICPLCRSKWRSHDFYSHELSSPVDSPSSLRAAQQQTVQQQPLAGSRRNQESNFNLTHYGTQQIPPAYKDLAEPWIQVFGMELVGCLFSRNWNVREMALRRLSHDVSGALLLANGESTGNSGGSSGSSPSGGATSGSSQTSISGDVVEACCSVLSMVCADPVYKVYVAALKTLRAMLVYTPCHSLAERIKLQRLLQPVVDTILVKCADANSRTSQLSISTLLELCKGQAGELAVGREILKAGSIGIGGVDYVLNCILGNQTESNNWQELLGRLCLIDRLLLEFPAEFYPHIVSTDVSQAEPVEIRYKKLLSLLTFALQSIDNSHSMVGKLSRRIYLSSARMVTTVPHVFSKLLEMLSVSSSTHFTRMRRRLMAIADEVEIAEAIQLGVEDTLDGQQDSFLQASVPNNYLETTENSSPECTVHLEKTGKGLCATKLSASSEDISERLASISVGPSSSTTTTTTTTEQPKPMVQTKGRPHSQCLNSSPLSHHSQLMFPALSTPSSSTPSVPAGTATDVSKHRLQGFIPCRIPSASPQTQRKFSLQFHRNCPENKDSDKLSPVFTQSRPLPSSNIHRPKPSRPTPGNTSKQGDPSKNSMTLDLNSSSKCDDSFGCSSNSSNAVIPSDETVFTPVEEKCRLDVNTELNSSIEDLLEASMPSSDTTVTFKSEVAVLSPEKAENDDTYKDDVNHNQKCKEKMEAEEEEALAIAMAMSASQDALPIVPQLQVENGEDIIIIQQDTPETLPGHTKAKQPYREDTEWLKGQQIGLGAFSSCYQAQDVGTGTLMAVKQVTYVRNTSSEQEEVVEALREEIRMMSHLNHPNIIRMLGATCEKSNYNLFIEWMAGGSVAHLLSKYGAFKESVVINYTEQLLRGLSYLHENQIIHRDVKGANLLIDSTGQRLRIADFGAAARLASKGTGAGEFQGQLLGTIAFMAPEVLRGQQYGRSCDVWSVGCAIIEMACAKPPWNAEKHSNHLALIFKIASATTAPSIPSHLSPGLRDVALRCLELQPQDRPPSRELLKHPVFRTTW
Chain of Mast/stem cell growth factor receptor Kit (Homo sapiens), P10721 [A829P] (P10721 whole entry A829P): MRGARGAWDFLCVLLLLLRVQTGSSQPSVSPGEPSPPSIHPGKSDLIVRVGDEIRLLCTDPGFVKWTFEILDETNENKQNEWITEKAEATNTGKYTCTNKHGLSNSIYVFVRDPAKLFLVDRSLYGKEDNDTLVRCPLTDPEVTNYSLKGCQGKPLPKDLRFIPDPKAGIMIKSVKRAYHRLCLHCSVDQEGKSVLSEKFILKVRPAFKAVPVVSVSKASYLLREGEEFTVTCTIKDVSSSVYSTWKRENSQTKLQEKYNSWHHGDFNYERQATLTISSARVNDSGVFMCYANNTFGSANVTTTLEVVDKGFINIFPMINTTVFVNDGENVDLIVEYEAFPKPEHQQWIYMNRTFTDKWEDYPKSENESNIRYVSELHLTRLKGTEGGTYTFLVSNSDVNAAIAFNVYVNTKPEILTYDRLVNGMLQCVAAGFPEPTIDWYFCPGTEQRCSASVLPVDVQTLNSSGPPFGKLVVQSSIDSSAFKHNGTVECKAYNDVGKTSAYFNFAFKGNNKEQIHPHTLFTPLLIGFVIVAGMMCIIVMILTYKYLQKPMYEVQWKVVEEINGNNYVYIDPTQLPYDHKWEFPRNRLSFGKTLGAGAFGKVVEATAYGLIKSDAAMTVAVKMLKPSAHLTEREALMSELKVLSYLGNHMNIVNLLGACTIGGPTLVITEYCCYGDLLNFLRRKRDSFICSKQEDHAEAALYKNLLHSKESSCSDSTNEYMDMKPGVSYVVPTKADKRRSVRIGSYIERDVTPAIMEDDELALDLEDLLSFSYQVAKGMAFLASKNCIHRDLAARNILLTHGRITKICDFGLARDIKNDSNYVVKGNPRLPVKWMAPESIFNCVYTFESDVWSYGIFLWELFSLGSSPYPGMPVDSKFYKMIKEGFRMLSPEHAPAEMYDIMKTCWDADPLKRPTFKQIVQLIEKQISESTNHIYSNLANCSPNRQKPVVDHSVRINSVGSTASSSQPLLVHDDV
Chain of Mitogen-activated protein kinase kinase kinase kinase 4 (Homo sapiens) (O95819 2-1239 limits assumed): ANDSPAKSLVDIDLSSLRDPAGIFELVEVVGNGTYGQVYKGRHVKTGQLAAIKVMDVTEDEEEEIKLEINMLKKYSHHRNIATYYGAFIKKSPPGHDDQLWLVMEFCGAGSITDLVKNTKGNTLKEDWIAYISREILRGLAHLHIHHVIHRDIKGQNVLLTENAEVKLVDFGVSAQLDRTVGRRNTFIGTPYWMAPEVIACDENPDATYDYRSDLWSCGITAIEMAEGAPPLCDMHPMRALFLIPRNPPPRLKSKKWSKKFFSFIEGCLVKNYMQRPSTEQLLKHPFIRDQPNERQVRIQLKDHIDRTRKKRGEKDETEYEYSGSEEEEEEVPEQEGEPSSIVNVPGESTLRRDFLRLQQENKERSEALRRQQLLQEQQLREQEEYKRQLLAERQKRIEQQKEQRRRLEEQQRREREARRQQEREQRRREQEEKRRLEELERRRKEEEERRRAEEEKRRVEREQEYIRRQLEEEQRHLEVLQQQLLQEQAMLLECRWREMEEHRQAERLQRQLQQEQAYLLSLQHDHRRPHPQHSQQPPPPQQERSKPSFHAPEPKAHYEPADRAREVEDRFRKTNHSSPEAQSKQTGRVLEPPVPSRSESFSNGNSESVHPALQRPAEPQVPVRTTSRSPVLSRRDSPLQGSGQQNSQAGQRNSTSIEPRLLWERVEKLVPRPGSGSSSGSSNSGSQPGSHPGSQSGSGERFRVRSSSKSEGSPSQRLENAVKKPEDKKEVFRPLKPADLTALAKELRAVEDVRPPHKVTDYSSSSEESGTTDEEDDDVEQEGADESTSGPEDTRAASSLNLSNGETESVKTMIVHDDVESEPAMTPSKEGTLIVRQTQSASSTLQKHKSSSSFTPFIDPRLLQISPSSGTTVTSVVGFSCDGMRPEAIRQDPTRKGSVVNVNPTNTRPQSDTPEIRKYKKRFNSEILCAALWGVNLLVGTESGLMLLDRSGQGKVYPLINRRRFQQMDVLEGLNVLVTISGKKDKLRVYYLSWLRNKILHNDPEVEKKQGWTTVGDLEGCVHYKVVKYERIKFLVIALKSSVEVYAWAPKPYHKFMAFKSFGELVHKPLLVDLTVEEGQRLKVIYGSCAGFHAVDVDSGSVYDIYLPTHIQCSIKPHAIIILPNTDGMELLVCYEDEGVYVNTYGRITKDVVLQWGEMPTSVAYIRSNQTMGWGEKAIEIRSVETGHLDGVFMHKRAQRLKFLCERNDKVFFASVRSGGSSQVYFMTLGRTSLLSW

COc1cc2ncnc(N[C@H](C)c3cccc4ccccc34)c2cc1OC
Activity [1]: 88% | Activity [2]: 75% | Activity [3]: 93% | Activity [4]: 100% | Activity [5]: 96% | Activity [6]: 100% | Activity [7]: 65% | Activity [8]: 78% | Activity [9]: 88% | Activity [10]: 88% | Activity [11]: 84% | Activity [12]: 100% | Activity [13]: 100%
